# Source: patent US20080095764A1, “Use of genetically-and epigenetically-altered protocadherins in methods of diagnosing, prognosing, and treating cancer” (THE TRUSTEES OF COLUMBIA UNIVERSITY IN THE CITY OF NEW YORK, priority 2004, published 2008)
# Entries after “also recorded” stand apart in the source; their conditions may differ.
# Test system: PCDH8 expression in MDA-MB-435s cells
# Assay: 5-aza-deoxycytidine treatment, reactivation of PCDH8 expression (RT-PCR)
# Assay type: cell-based, human
# Details: MDA-MB-435s breast cancer cells with methylated PCDH8 promoter, 1 μM 5-aza-deoxycytidine for 72 hours, vs PBS control
# Experimental: Cells were lysed in solution D, and RNA was separated by CsCl. RNA was resuspended in sodium acetate, and reprecipitated with ethanol. The pellet was dissolved in DEPC-treated water. RNA was primed with random hexamers, and reverse-transcribed with Superscript II reverse transcriptase (Invitrogen).
# cDNA was synthesized from RNA primed with random hexamers (Amersham). Primers used for RT-PCR are below: DIAPH3: […] (SEQ ID NO:74, […] (SEQ ID NO:75). PCDH8: TGGCGGTGTGGAAAGGACA (SEQ ID NO:75), […] (SEQ ID NO:76). For reactivation studies, cells were treated with 1 μM 5-aza-deoxycytidine for 72 hours.
# Cells were plated to 20% confluence, and treated with fresh 1 micromolar 5-aza-deoxycytidine for 72 h. RNA and cDNA were prepared from the cells and subjected to PCR.
smiles,measurement,value
Nc1ncn([C@H]2C[C@H](O)[C@@H](CO)O2)c(=O)n1 [5-aza-deoxycytidine],PCDH8 expression after treatment,restored; also recorded: reactivated
